Experimental data taken from patent publication US11213033B2, “Method for reusing leaves from arborescent woody plants, for the phytopharmaceutical industry” (CENTRE NATIONAL DE LA RECHERCHE SCIENTIFIQUE—CNRS, priority 2014, dated 2022).

What was measured:
[1] = tested on: Phytophthora parasitica var. nicotianae (Ppn) isolate 329; test: Curative treatment of tobacco leaf discs against a pathogen: surface area of region of infection; type: in vivo; conditions: 50 μl composition (1% extract), 100 μl zoospore suspension, three days after the infiltrations
Procedure: Identical compositions are used, as well as leaves originating from the same tobacco plants as in Example 2. Two discs ([…]) are cut from a single leaf and then placed in a Petri dish containing a layer of 2% agarose gel.
The pathogen selected for the study is Phytophthora parasitica var. nicotianae (Ppn) isolate 329. The Ppn is grown on Malt Agar at 24° C. For the production of zoospores, the Ppn mycelium is grown for a week in V8 liquid medium at 24° C. under continuous light conditions, macerated, and then incubated for four days in water containing 2% agar. The zoospores are released by means of thermal shock consisting of two incubations, a first at 4° C. for 20 min, a second at 37° C. for 30 min after addition of 10 ml water. A zoospore suspension in water (1 zoospore per microliter) is prepared before being inoculated.
The compositions containing the extracts (50 μl) are infiltrated and the zoospore suspensions (100 μl) are inoculated into two separate regions, 1 cm apart, of the tobacco leaf parenchyma. Assays in which the compositions are replaced with salicylic acid (positive control) or ultrapure water (negative control) are performed. Three days after the infiltrations, the surface area of the region of infection is measured. The measurements are made using the Optima and Photoshop software for Windows.

[2] = Sulcotrione photoprotection test (Suntest irradiation, HPLC); type: physicochemical
Procedure: The pesticide used is sulcotrione. It was used in its Mikado commercial formulation. Sulcotrione degrades when irradiated by sunlight. The speed of the photodegradation depends on the environment of the molecule. To be representative of actual usage conditions of the pesticide, the rate of sulcotrione photodegradation is measured with the latter being dry, deposited in crystallizing dishes where the bottom is covered by a film of paraffin wax simulating the thin layer of epicuticular wax covering the surface of plants.
The formulated sulcotrione is deposited alone or in the presence of the compositions, 1 ml per crystallizing dish. The concentration of sulcotrione is fixed at 8 mg/l (100 g/ha) and that of the extracts is adjusted so that the absorbance of the compositions at 300 nm is equal to 4 for a 1 mm path length. The pH of the two compositions is normalized to 4.5 by the addition of sodium hydroxide. The crystallizing dishes are then inserted into a Suntest irradiator delivering a radiation similar in photon distribution and intensity to sunlight when the sun is at zenith in temperate regions, then removed after 3 h and 6 h of irradiation. The crystallizing dishes are rinsed with 2 ml ultrapure water and these solutions are analyzed by HPLC to determine their sulcotrione content.

Row | SMILES | Surface area of region of infection [1] [cm^2] | sulcotrione disappearance after 3 hours of irradiation ([2]; Suntest, 3 h) [%] | sulcotrione disappearance (loss) after 6 hours of irradiation ([2]; Suntest, 6 h) | Sulcotrione content after 3 h irradiation ([2]; sulcotrione 8 mg/l, dry deposit on paraffin wax film, Suntest, 3 h) | Sulcotrione content after 6 h irradiation ([2]; sulcotrione 8 mg/l, dry deposit on paraffin wax film, Suntest, 6 h) | Initial sulcotrione content ([2]; sulcotrione 8 mg/l, dry deposit on paraffin wax film, before irradiation)
1 | O=C(O)c1ccccc1O [Salicylic acid, salicylic acid] | 10.9 ± 2.8 | – | – | – | – | –
2 | CS(=O)(=O)c1ccc(C(=O)C2C(=O)CCCC2=O)c(Cl)c1 [Sulcotrione alone, sulcotrione] | – | 65 | about 75% | 135 000 U.A. | 91 000 U.A. | 390 000 U.A.
